Data taken from patent US9353082B2, “Pharmaceutical compounds” (BIAL—PORTELA & CA, S.A., priority 2008, dated 2016).

How the values were obtained:
FAAH [1] = biological target: T1, FAAH (Rattus norvegicus, UniProt P97612); assay: In vitro FAAH activity in rat brain membranes, 3H-AEA substrate, % of control; assay type: biochemical, Wistar rats; details: low value = strong inhibitor; for FAAH 100 nM: 100 nM compound; for In Vitro FAAH activity, 100 nM: 100 nM test compound
T1 construct: Frozen brains (without cerebellum) from Wistar rats were used; from tissue; host or cells: Wistar rat brain (without cerebellum), washed membrane pellets
T1 sequence (P97612 1-579): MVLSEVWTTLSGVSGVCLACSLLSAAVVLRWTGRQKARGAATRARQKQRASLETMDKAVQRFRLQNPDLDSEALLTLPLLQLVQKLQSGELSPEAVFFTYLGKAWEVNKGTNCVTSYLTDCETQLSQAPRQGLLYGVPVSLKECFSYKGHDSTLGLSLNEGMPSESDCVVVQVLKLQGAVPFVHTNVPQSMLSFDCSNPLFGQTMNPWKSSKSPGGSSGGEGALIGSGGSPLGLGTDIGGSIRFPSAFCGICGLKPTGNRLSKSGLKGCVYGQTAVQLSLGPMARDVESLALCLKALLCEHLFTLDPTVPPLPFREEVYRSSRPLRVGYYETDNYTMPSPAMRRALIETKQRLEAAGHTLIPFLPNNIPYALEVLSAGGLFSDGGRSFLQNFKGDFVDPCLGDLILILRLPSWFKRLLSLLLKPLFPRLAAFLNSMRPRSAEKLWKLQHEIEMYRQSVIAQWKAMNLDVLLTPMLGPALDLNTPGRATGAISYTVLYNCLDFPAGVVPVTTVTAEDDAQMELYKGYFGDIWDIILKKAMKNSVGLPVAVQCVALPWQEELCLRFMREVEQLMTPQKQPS
Method in brief: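 FAAH activity measured as 3H-ethanolamine released from 2 μM [3H]AEA over 10 min by rat brain membrane preparation, after 15 min 37 °C preincubation with test compound at 10 or 0.1 μM. Charcoal-separated supernatant scintillation-counted; values expressed as % of control minus no-protein blank.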

carboxylesterase (CE) [2] = assay: Carboxylesterase (CE) activity in mouse liver microsomes (LVms), p-nitrophenyl acetate; assay type: biochemical; details: 10 uM compound, read 10 min after substrate, remaining CE activity
Description: (§1) FAAH inhibition was determined as described above. Inhibition of monoacylglycerol lipase (MAGL) and carboxylesterase (CE) was performed according to the protocols described below. The controls for both in vitro and in vivo were the reaction mix minus the test compounds. Therefore, a low value in Table 2 below for the test compounds indicates a strong inhibitor.
(§2) CE activity measurement is based on the formation of p-nitrophenol from p-nitrophenyl acetate. Briefly, in 96-well plates 8 μg/ml of rat or mouse liver microsomes (LVms) were incubated with 10 μM FAAH inhibitors for 15 min and then the substrate, p-nitrophenyl acetate, was added to a final concentration of 1 mM. The plate was read at 405 nm 10 min after substrate addition for the appearance of p-nitrophenol using a spectrophotometer. The carboxylesterase activity in microsome extracts without inhibitor added were set at 100% as control and the remaining CE activities after incubation with inhibitors were calculated relative to the control.

carboxylesterase (CE) [3] = assay: Carboxylesterase (CE) activity in rat liver microsomes (LVms), p-nitrophenyl acetate; assay type: biochemical; details: 10 uM compound, read 10 min after substrate, remaining CE activity
Description: as §1, §2

FAAH [4] = biological target: T2, FAAH (Mus musculus, UniProt O08914); assay: In vivo FAAH inhibition after oral dosing, remaining activity in brain homogenate (BRh, central nervous tissue); design: species or system NMRI mice; details: for In Vivo BRh 3 mg · kg · 8 h (remaining FAAH activity) / FAAH BRh 3 mg · kg · 8 h: 3 mg/kg oral; for FAAH BRh 3 mg · kg · 8 h: in vivo, mouse brain, remaining enzymatic activity
T2 construct: A fragment of liver, left lung lobe and brain without cerebellum were removed; from tissue; host or cells: male NMRI mice; brain (without cerebellum) and liver homogenates
T2 sequence (O08914 1-579): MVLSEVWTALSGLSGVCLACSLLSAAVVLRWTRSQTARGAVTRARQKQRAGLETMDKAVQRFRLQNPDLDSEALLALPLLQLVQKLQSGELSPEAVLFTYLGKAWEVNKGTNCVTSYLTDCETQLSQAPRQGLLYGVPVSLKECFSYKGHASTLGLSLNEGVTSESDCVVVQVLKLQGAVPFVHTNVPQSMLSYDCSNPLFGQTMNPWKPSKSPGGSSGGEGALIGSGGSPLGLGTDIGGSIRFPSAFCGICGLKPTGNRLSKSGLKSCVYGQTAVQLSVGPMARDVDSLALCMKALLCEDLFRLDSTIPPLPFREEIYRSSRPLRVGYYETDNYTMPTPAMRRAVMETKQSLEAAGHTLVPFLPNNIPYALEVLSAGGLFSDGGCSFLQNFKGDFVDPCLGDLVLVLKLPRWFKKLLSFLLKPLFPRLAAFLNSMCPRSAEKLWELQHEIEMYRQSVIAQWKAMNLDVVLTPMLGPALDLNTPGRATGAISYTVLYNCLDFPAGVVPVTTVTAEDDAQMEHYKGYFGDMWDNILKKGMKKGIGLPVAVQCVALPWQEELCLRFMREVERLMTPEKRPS
Method in brief: (§3)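 Remaining FAAH activity is given as % of vehicle-treated controls after blank subtraction, measured by radiolabelled AEA hydrolysis (2 μM AEA, 5 nM 3H-AEA, 37 °C) in brain (10 min) or liver (7 min) homogenates. These came from fasted male NMRI mice dosed orally at 30 or 3 mg/kg.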

[5] = biological target: T3, monoacylglycerol lipase (MAGL) (Rattus norvegicus, UniProt Q8R431); assay: MAGL activity in rat cerebella cytosol (CRBcyt), hydrolysis of [3H] 2-OG; assay type: biochemical, WISTAR rats; details: 12.5 uM compound, remaining MAGL activity
T3 construct: cerebella cytosol (CRBcyt) fractions, previously obtained from adult WISTAR rats; from tissue; host or cells: adult Wistar rat cerebella, cytosol fraction
T3 sequence (Q8R431 1-303): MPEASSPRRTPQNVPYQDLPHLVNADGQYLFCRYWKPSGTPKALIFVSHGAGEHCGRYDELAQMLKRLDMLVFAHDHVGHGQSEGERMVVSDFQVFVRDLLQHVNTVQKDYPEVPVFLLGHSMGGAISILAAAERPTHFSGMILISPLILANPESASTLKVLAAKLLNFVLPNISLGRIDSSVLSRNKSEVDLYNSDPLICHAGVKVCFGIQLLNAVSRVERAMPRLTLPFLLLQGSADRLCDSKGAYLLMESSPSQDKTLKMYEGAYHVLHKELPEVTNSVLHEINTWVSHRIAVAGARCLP
Description: as §1
MAGL activity measurement was based on rate of hydrolysis of [^3H] 2-OG (glycerol labeled) as substrate. Briefly, cerebella cytosol (CRBcyt) fractions, previously obtained from adult WISTAR rats, were diluted to appropriate assay protein concentrations in Tris-HCl buffer (10 mM, pH 7.2) containing 1 mM EDTA, and were added to assay tubes containing test compound. Blanks contained assay buffer instead of cytosol samples were used as control. […] The final assay contained 0.125% w v^−1 fatty acid-free BSA. After the incubation phase, reactions were stopped by adding 400 μL chloroform:methanol (1/1 v v^−1), vortex mixing the tubes two times and placing them on ice. Phases were separated by centrifugation and 200 μL aliquots of the methanol/buffer phase were taken and tritium content assayed by liquid scintillation spectroscopy with quench correction.

FAAH [6] = biological target: T2, FAAH; assay: In vivo FAAH inhibition after oral dosing, remaining activity in liver homogenate (LVh, peripheral tissue); design: species or system NMRI mice; details: for FAAH LVh 3 mg · kg · 8 h: in vivo, mouse liver, remaining enzymatic activity; for FAAH LVh 3 mg · kg · 8 h / In Vivo LVh 3 mg · kg · 8 h (remaining FAAH activity): 3 mg/kg oral
Method in brief: as §3

[7] = rat brain membranes, 100 = no measurable inhibition
[8] = brain homogenate, low value = strong inhibitor
[9] = liver homogenate, low value = strong inhibitor

CN(C(=O)n1nnc2cc(Br)ccc21)C1CCCCC1 [Compound 97, 5-bromo-N-cyclohexyl-N-methyl-1H-benzo[d][1,2,3]triazole-1-carboxamide]
FAAH 100 nM (FAAH [1]; [7]): 0 % of control
In Vitro FAAH activity, 100 nM (FAAH [1]): 0 % of control
CE Mou LVms 10 uM 10 min (carboxylesterase (CE) [2]): 50.7 % of control
CE Rat LVms 10 uM 10 min (carboxylesterase (CE) [3]): 41.1 % of control

O=C(NCCCCc1ccccc1)n1nnc2ccccc21 [Compound 85, N-(4-phenylbutyl)-1H-benzo[d][1,2,3]triazole-1-carboxamide]
FAAH 100 nM (FAAH [1]; [7]): 0.1 % of control
In Vitro FAAH activity, 100 nM (FAAH [1]): 0.1 % of control
CE Mou LVms 10 uM 10 min (carboxylesterase (CE) [2]): 31 % of control
CE Rat LVms 10 uM 10 min (carboxylesterase (CE) [3]): 33 % of control

COc1ccc(N(C)C(=O)n2cnc(-c3ccc4ccccc4c3)c2)cc1 [Compound 16, N-(4-methoxyphenyl)-N-methyl-4-(naphthalen-2-yl)-1H-imidazole-1-carboxamide]
FAAH 10 uM (FAAH [1]; 10 uM compound, rat brain membranes, 100 = no measurable inhibition): 24.7 % of control
In Vitro FAAH activity, 10 uM (FAAH [1]; 10 uM test compound): 24.7 % of control
CE Mou LVms 10 uM 10 min (carboxylesterase (CE) [2]): 95.4 % of control
CE Rat LVms 10 uM 10 min (carboxylesterase (CE) [3]): 87.5 % of control

CN(C(=O)n1cnc(-c2ccc(S(C)(=O)=O)cc2)c1)C1CCN(Cc2ccccc2)CC1 [Compound 567, N-(1-benzylpiperidin-4-yl)-N-methyl-4-(4-(methylsulfonyl)phenyl)-1H-imidazole-1-carboxamide]
In Vivo BRh 3 mg · kg · 8 h (remaining FAAH activity) (FAAH [4]; [8]): 87.8 % of control
FAAH BRh 3 mg · kg · 8 h (FAAH [4]): 87.8 % of control
MAGL Rat CRBcyto 12.5 uM 8 min [5]: 94.2 % of control
FAAH LVh 3 mg · kg · 8 h (FAAH [6]): 6.3 % of control
In Vivo LVh 3 mg · kg · 8 h (remaining FAAH activity) (FAAH [6]; [9]): 6.3 % of control
CE Mou LVms 10 uM 10 min (carboxylesterase (CE) [2]): 88.6 % of control
CE Rat LVms 10 uM 10 min (carboxylesterase (CE) [3]): 97.8 % of control

CN(C(=O)n1cnc(-c2ccc3oc(=O)[nH]c3c2)c1)C1CCCC1 [Compound 564, N-cyclopentyl-N-methyl-4-(2-oxo-2,3-dihydrobenzo[d]oxazol-5-yl)-1H-imidazole-1-carboxamide]
In Vivo BRh 3 mg · kg · 8 h (remaining FAAH activity) (FAAH [4]; [8]): 37.6 % of control
FAAH BRh 3 mg · kg · 8 h (FAAH [4]): 37.6 % of control
MAGL Rat CRBcyto 12.5 uM 8 min [5]: 91.6 % of control
FAAH LVh 3 mg · kg · 8 h (FAAH [6]): 2.3 % of control
In Vivo LVh 3 mg · kg · 8 h (remaining FAAH activity) (FAAH [6]; [9]): 2.3 % of control
CE Mou LVms 10 uM 10 min (carboxylesterase (CE) [2]): 87.4 % of control
CE Rat LVms 10 uM 10 min (carboxylesterase (CE) [3]): 96.1 % of control

CN(CCOCc1ccccc1)C(=O)n1nnc2ccccc21 [Compound 156, N-(2-(benzyloxy)ethyl)-N-methyl-1H-benzo[d][1,2,3]triazole-1-carboxamide]
In Vivo BRh 3 mg/kg 8 h, remaining FAAH activity (FAAH [4]; brain homogenate, 3 mg/kg): 67.2 % of control
In Vitro FAAH activity, 100 nM (FAAH [1]): 0.1 % of control
In Vivo LVh 3 mg/kg 8 h, remaining FAAH activity (FAAH [6]; liver homogenate, 3 mg/kg): 24.4 % of control

CN(C(=O)n1cnc(-c2ccc(F)c(O)c2)c1)C1CCCCC1 [Compound 343, N-cyclohexyl-4-(4-fluoro-3-hydroxyphenyl)-N-methyl-1H-imidazole-1-carboxamide]
In Vivo BRh 3 mg·kg 8 h (remaining FAAH activity, % of control) (FAAH [4]; brain homogenate, 3 mg/kg, 8 h after dosing, low value = strong inhibitor): 95.5 % of control
In Vitro 100 nM (FAAH activity, % of control) (FAAH [1]; rat brain membranes, compound at 100 nM): 44.7 % of control
In Vivo LVh 3 mg·kg 8 h (remaining FAAH activity, % of control) (FAAH [6]; liver homogenate, 3 mg/kg, 8 h after dosing, low value = strong inhibitor): 19.7 % of control

CN(C(=O)n1cnc(-c2ccc(F)c(F)c2)c1)C1CCCCC1 [Compound 272, N-cyclohexyl-4-(3,4-difluorophenyl)-N-methyl-1H-imidazole-1-carboxamide]
In Vivo BRh 3 mg/kg 8 h, remaining FAAH activity (FAAH [4]; brain homogenate, 3 mg/kg): 19 % of control
In Vitro FAAH activity, 100 nM (FAAH [1]): 63.6 % of control
In Vivo LVh 3 mg/kg 8 h, remaining FAAH activity (FAAH [6]; liver homogenate, 3 mg/kg): 7.1 % of control
